Data: US20240228499A1, “MASP-2 INHIBITORS AND METHODS OF USE” (Omeros Corporation, priority 2022, published 2024)
Where a name gives a salt, the structure may show the parent alone.

What was measured:
Format in all cases: biochemical
MASP-2 (CCP1-CCP2-SP) = biological target: T1, MASP-2 (CCP1-CCP2-SP) (Homo sapiens, UniProt O00187); experiment: Enzymatic assay for MASP-2 inhibitory activity (fluorogenic substrate); settings: room temperature, 20 mM Hepes pH 7.4, 20 min
T1 construct: 15 μL of Enzyme MASP-2 (CCP1-CCP2-SP) in Assay Buffer
How it was run: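 Human MASP-2 CCP1-CCP2-SP construct with a C2-cleavage-site fluorogenic substrate in 20 mM HEPES pH 7.4, 140 mM NaCl, 0.1% Tween 20, 20 min at room temperature before acetic acid stop. Activity normalised to DMSO and no-enzyme controls; IC50 taken as equivalent to Ki under linear conditions.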

human a-thrombin = biological target: T2, human a-thrombin (Homo sapiens, UniProt P00734); experiment: Enzymatic assay for thrombin (fluorogenic peptide substrate Boc-VPR-AMC); settings: room temperature, 20 mM Hepes pH 7.4, 20 min
T2 construct: enzyme (human a-thrombin (BioPharm® Lab.)); purchased BioPharm Lab
How it was run: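 Human α-thrombin was incubated with serially diluted compound and fluorogenic substrate Boc-VPR-AMC in 20 mM Hepes pH 7.4, 140 mM NaCl, 0.1% Tween 20 at room temperature. The reaction was stopped after 20 min with 0.1 M acetic acid and fluorescence read. % activity was normalized to DMSO and no-enzyme controls, and IC50 was taken as equivalent to Ki.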

[1] = system: Lectin Pathway Activation (LPA) in human serum; experiment: Lectin pathway activation (LPA) assay in human serum, C4 deposition on mannan-coated plate; settings: 1% pooled human serum, 55 minutes, room temperature
Description: A Microtiter ELISA plate (Nunc-Maxi Sorp; Sigma-Aldrich®, USA) was coated with mannan sourced from Saccharomyces cerevisiae (Sigma-Aldrich®, USA) in a coating buffer comprising 33.3 mM Na2CO3 and 166.67 mM NaHCO3. The plates were incubated at room temperature overnight. Subsequently, the plates were blocked with a 5% bovine serum albumin solution (Sigma-Aldrich®, USA) prepared in PBST for 2 hours at room temperature with agitation. Varying concentrations of MASP-2 inhibitors were dispensed onto the empty plate.
To perform the assay, pooled human serum was diluted to 1% in a solution of 20 mM HEPES (pH=7.4), 140 mM NaCl, and 1 mM MgCl2. Then, 40 μl of the diluted human serum was dispensed into each well of the Microtiter ELISA plate and incubated for 55 minutes at room temperature. The C4 deposition on the mannan-coated surface was stopped using an EDTA stop solution (20 mM HEPES, pH=7.4, 140 mM NaCl, and 150 mM EDTA). Subsequently, rabbit anti-Human C4c antibody (Agilent Technologies, USA) prepared in PBST was added, and the plates were incubated at room temperature for 30 minutes with agitation, then washed with PBST, and Goat anti-rabbit IgG(H+L) HRP-conjugated (Southern Biotech®, USA) was added. The plates were again incubated at room temperature for 30 minutes with agitation, and then were washed with PBST. Following this, the Amplex® UltraRed® (Thermo Fischer Sci, USA) substrate solution was added for 16 minutes, followed by the addition of the Amplex® UltraRed® stop solution. The plates' fluorescence was measured using an i3× microplate reader (Molecular Devices, USA) with excitation at 550 nm and emission at 580 nm. The raw data generated from the plate reader was exported to GraphPad Prism® (version 10.0.3), and the non-linear regression curve was generated using the 4-parameter logistic fit equation. All data are reported as pIC50 with a 95% confidence interval.

T1 sequence (O00187 287-686 limits assumed): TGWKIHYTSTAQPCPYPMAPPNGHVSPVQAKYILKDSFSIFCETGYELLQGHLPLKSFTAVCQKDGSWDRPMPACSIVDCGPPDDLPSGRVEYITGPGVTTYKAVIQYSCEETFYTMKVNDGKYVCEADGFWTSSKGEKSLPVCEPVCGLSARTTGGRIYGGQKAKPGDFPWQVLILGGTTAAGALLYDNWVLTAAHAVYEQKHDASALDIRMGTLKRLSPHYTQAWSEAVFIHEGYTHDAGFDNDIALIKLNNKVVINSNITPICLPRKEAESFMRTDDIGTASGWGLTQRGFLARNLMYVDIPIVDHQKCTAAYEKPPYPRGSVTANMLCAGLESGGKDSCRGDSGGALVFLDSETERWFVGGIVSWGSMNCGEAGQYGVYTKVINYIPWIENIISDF

Structure (SMILES) | Ki (MASP-2 (CCP1-CCP2-SP)) | Ki (human a-thrombin) | IC50 [1]
Cc1cc(C)cc(CNc2cnc3n(c2=O)[C@H](C(=O)NCc2cnc4[nH]cc(Cl)c4c2)CC3)c1 [Compound 18, (S)—N-((3-chloro-1H-pyrrolo[2,3-b]pyridin-5-yl)methyl)-3-((3,5-dimethylbenzyl)amino)-4-oxo-4,6,7,8-tetrahydropyrrolo[1,2-a]pyrimidine-6-carboxamide, trifluoracetate] | < 500 nM | 2500 to 10000 nM | < 500 nM
Cc1cc(C)cc(CNc2cnc3n(c2=O)[C@H](C(=O)NCc2ccc4cncn4c2)CC3)c1 [Compound 20, (S)-3-((3,5-dimethylbenzyl)amino)-N-(imidazo[1,5-a]pyridin-6-ylmethyl)-4-oxo-4,6,7,8-tetrahydropyrrolo[1,2-a]pyrimidine-6-carboxamide] | < 500 nM | > 25000 nM | < 500 nM
Cc1cc(C)cc(CNc2cnc3n(c2=O)[C@H](C(=O)NCc2cnc4c(c2)CNC4)CC3)c1 [Compound 22, (S)—N-((6,7-dihydro-5H-pyrrolo[3,4-b]pyridin-3-yl)methyl)-3-((3,5-dimethylbenzyl)amino)-4-oxo-4,6,7,8-tetrahydropyrrolo[1,2-a]pyrimidine-6-carboxamide, trifluoroacetate] | < 500 nM | > 25000 nM | < 500 nM
Cc1cc(F)cc(CNc2cnc3n(c2=O)[C@H](C(=O)N[C@H](C)c2ccc(N)nc2)CC3)c1 [Compound 25, (S)—N—((R)-1-(6-aminopyridin-3-yl)ethyl)-3-((3-fluoro-5-methylbenzyl)amino)-4-oxo-4,6,7,8-tetrahydropyrrolo[1,2-a]pyrimidine-6-carboxamide, DI-trifluoroacetate] | < 500 nM | > 25000 nM | < 500 nM
Cc1nc(N)ccc1CNC(=O)[C@@H]1CCc2ncc(NCc3ccc(-n4cccn4)cc3)c(=O)n21 [Compound 44, (S)-3-((4-(1H-pyrazol-1-yl)benzyl)amino)-N-((6-amino-2-methylpyridin-3-yl)methyl)-4-oxo-4,6,7,8-tetrahydropyrrolo[1,2-a]pyrimidine-6-carboxamide, trifluoroacetate] | < 500 nM | 10000 to 25000 nM | < 500 nM
COc1ccc(CNc2cnc3n(c2=O)[C@H](C(=O)NCc2ccc(N)nc2C)CC3)cc1F [Compound 46, (S)-N-((6-amino-2-methylpyridin-3-yl)methyl)-3-((3-fluoro-4-methoxybenzyl)amino)-4-oxo-4,6,7,8-tetrahydropyrrolo[1,2-a]pyrimidine-6-carboxamide, di-trifluoroacetate] | < 500 nM | 500 to 2500 nM | < 500 nM
Cc1ccc(F)c(CNc2cnc3n(c2=O)[C@H](C(=O)NCc2cc4c(s2)CNC4)CC3)c1 [Compound 50, (S)—N-((5,6-dihydro-4H-thieno[2,3-C]pyrrol-2-yl)methyl)-3-((2-fluoro-5-methylbenzyl)amino)-4-oxo-4,6,7,8-tetrahydropyrrolo[1,2-a]pyrimidine-6-carboxamide, di-trifluoroacetate] | < 500 nM | 2500 to 10000 nM | < 500 nM
Cc1cc(Cl)cc(CNc2cnc3n(c2=O)[C@H](C(=O)N[C@@H]2CCc4nc(N)ccc42)CC3)c1 [Compound 83, (S)—N—((R)-2-amino-6,7-dihydro-5H-cyclopenta[b]pyridin-5-yl)-3-((3-chloro-5-methylbenzyl)amino)-4-oxo-4,6,7,8-tetrahydropyrrolo[1,2-a]pyrimidine-6-carboxamide] | < 500 nM | < 500 nM | –
Cc1cc(Cl)cc(CNc2cnc3n(c2=O)[C@H](C(=O)N[C@@H]2CCc4ncccc42)CC3)c1 [Compound 85, (S)-3-((3-chloro-5-methylbenzyl)amino)-N-((R)-6,7-dihydro-5H-cyclopenta[b]pyridin-5-yl)-4-oxo-4,6,7,8-tetrahydropyrrolo[1,2-a]pyrimidine-6-carboxamide] | < 500 nM | > 25000 nM | –
COc1cc(Cl)cc(CNc2cnc3n(c2=O)[C@H](C(=O)N[C@@H]2CCc4nc(N)ccc42)CC3)c1 [Compound 87, (S)-N-((R)-2-amino-6,7-dihydro-5H-cyclopenta[b]pyridin-5-yl)-3-((3-chloro-5-methoxybenzyl)amino)-4-oxo-4,6,7,8-tetrahydro-pyrrolo[1,2-a]pyrimidine-6-carboxamide] | < 500 nM | < 500 nM | –
N#Cc1cc(Cl)cc(CNc2cnc3n(c2=O)[C@H](C(=O)N[C@@H]2CCc4nc(N)ccc42)CC3)c1 [Compound 89, (S)-N-((R)-2-amino-6,7-dihydro-5H-cyclopenta[b]pyridin-5-yl)-3-((3-chloro-5-cyanobenzyl)amino)-4-oxo-4,6,7,8-tetrahydro-pyrrolo[1,2-a]pyrimidine-6-carboxamide] | < 500 nM | < 500 nM | –
Cc1c(C#N)cccc1CNc1cnc2n(c1=O)[C@H](C(=O)N[C@@H]1CCc3nc(N)ccc31)CC2 [Compound 92, (S)-N-((R)-2-amino-6,7-dihydro-5H-cyclopenta[b]pyridin-5-yl)-3-((3-cyano-2-methylbenzyl)amino)-4-oxo-4,6,7,8-tetrahydro-pyrrolo[1,2-a]pyrimidine-6-carboxamide] | < 500 nM | 2500 to 10000 nM | –
N#Cc1cc(F)cc(CNc2cnc3n(c2=O)[C@H](C(=O)N[C@@H]2CCc4nc(N)ccc42)CC3)c1 [Compound 93, (S)-N-((R)-2-amino-6,7-dihydro-5H-cyclopenta[b]pyridin-5-yl)-3-((3-cyano-5-fluorobenzyl)amino)-4-oxo-4,6,7,8-tetrahydro-pyrrolo[1,2-a]pyrimidine-6-carboxamide] | < 500 nM | 500 to 2500 nM | –
Cc1cc(C)cc(CNc2cnc3n(c2=O)[C@H](C(=O)N[C@@H](C)c2cc4c(s2)CNC4)CC3)c1 [Compound 107] | < 500 nM | > 25000 nM | –

Results, then the compound that gave them:

Ki (MASP-2 (CCP1-CCP2-SP)) | Ki (human a-thrombin) | IC50 [1] | Structure (SMILES)
< 500 nM | 500 to 2500 nM | – | Nc1ccc2c(n1)CC[C@H]2NC(=O)[C@@H]1CCc2ncc(NCc3cccc(C(F)F)c3)c(=O)n21 [Compound 84, (S)-N-((R)-2-amino-6,7-dihydro-5H-cyclopenta[b]pyridin-5-yl)-3-((3-(difluoromethyl)benzyl)amino)-4-oxo-4,6,7,8-tetrahydro-pyrrolo[1,2-a]pyrimidine-6-carboxamide]
< 500 nM | 500 to 2500 nM | – | Cc1ccc(CNc2cnc3n(c2=O)[C@H](C(=O)N[C@@H]2CCc4nc(N)ccc42)CC3)cc1C#N [Compound 88, (S)-N-((R)-2-amino-6,7-dihydro-5H-cyclopenta[b]pyridin-5-yl)-3-((3-cyano-4-methylbenzyl)amino)-4-oxo-4,6,7,8-tetrahydro-pyrrolo[1,2-a]pyrimidine-6-carboxamide]
< 500 nM | 500 to 2500 nM | – | N#CCc1cccc(CNc2cnc3n(c2=O)[C@H](C(=O)N[C@@H]2CCc4nc(N)ccc42)CC3)c1 [Compound 91, (S)-N-((R)-2-amino-6,7-dihydro-5H-cyclopenta[b]pyridin-5-yl)-3-((3-(cyanomethyl)benzyl)amino)-4-oxo-4,6,7,8-tetrahydro-pyrrolo[1,2-a]pyrimidine-6-carboxamide]
< 500 nM | 500 to 2500 nM | – | Cc1cc(F)cc(CNc2cnc3n(c2=O)[C@H](C(=O)N[C@@H]2CCc4nc(N)ccc42)CC3)c1 [Compound 96]
< 500 nM | < 500 nM | – | C#Cc1cccc(CNc2cnc3n(c2=O)[C@H](C(=O)N[C@@H]2CCc4nc(N)ccc42)CC3)c1 [Compound 98]
< 500 nM | 2500 to 10000 nM | – | Nc1ccc2c(n1)CC[C@H]2NC(=O)[C@@H]1CCc2ncc(NCc3ccc4c(c3)OCC4)c(=O)n21 [Compound 99]
< 500 nM | 500 to 2500 nM | – | Nc1ccc2c(n1)CC[C@H]2NC(=O)[C@@H]1CCc2ncc(NCc3cccc(F)c3)c(=O)n21 [Compound 101]
< 500 nM | 10000 to 25000 nM | – | Nc1ccc2c(n1)CC[C@H]2NC(=O)[C@@H]1CCc2ncc(NCc3cccc(-c4ccccc4)c3)c(=O)n21 [Compound 102]
< 500 nM | 2500 to 10000 nM | – | Nc1ccc2c(n1)CC[C@H]2NC(=O)[C@@H]1CCc2ncc(NCc3cccc(CO)c3)c(=O)n21 [Compound 103]
< 500 nM | 500 to 2500 nM | – | CC(=O)c1cccc(CNc2cnc3n(c2=O)[C@H](C(=O)N[C@@H]2CCc4nc(N)ccc42)CC3)c1 [Compound 104]
